Measurements taken from PubChem BioAssay (NCI).
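In this assay, cells in 96-well plates receive the compound at five concentrations for 48 hours. Endpoints are linearly interpolated between the surrounding concentrations. TGI marks complete inhibition of growth.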

How the values were obtained:
Test in all cases: growth of human tumour cells (NCI), 48 h
[1] = test system: 786-0 renal
[2] = test system: A498 renal
[3] = test system: A549 NSCLC
[4] = test system: ACHN renal
[5] = test system: CAKI-1 renal
[6] = test system: CCRF-CEM leukemia
[7] = test system: COLO 205 colon
[8] = test system: DU-145 prostate
[9] = test system: EKVX NSCLC
[10] = test system: HCC-2998 colon
[11] = test system: HCT-116 colon
[12] = test system: HCT-15 colon
[13] = test system: HL-60(TB) leukemia
[14] = test system: HOP-62 NSCLC
[15] = test system: HOP-92 NSCLC
[16] = test system: HS 578T breast
[17] = test system: HT29 colon
[18] = test system: IGROV1 ovarian
[19] = test system: K-562 leukemia
[20] = test system: KM12 colon
[21] = test system: LOX IMVI melanoma
[22] = test system: M14 melanoma
[23] = test system: MALME-3M melanoma
[24] = test system: MCF7 breast
[25] = test system: MDA-MB-231 breast
[26] = test system: MDA-MB-435
[27] = test system: MDA-N
[28] = test system: MOLT-4 leukemia
[29] = test system: NCI-H226 lung
[30] = test system: NCI-H23 lung
[31] = test system: NCI-H460 lung
[32] = test system: NCI-H522 lung
[33] = test system: NCI/ADR-RES ovarian
[34] = test system: OVCAR-3 ovarian
[35] = test system: OVCAR-4 ovarian
[36] = test system: OVCAR-5 ovarian
[37] = test system: OVCAR-8 ovarian
[38] = test system: PC-3 prostate
[39] = test system: RPMI-8226 leukemia
[40] = test system: RXF 393 renal
[41] = test system: SF-268 CNS
[42] = test system: SF-295 CNS
[43] = test system: SF-539 CNS
[44] = test system: SK-MEL-2 melanoma
[45] = test system: SK-MEL-28 melanoma
[46] = test system: SK-MEL-5 melanoma
[47] = test system: SK-OV-3 ovarian
[48] = test system: SN12C renal
[49] = test system: SNB-19 CNS
[50] = test system: SNB-75 CNS
[51] = test system: SR leukemia
[52] = test system: SW-620 colon
[53] = test system: T-47D breast
[54] = test system: TK-10 renal
[55] = test system: U251 CNS
[56] = test system: UACC-257 melanoma
[57] = test system: UACC-62 melanoma
[58] = test system: UO-31 renal

For O=C(CCCN1CCC2(CC1)OC(=O)N(c1ccccc1)C2=O)c1ccccc1, the TGI [1] was > 100 µM, the TGI [2] was > 100 µM and the TGI [3] was > 100 µM. The TGI [4] was > 100 µM, the TGI [5] was > 100 µM and the TGI [6] was > 100 µM. For the same compound, the TGI [7] was > 100 µM, the TGI [8] was > 100 µM and the TGI [9] was > 100 µM. For the same compound, the TGI [10] was > 100 µM, the TGI [11] was > 100 µM and the TGI [12] was > 100 µM. The TGI [13] was > 100 µM, the TGI [14] was > 100 µM and the TGI [15] was > 100 µM. For the same compound, the TGI [16] was > 100 µM, the TGI [17] was > 100 µM and the TGI [18] was > 100 µM. For the same compound, the TGI [19] was > 100 µM, the TGI [20] was > 100 µM and the TGI [21] was > 100 µM. For the same compound, the TGI [22] was > 100 µM, the TGI [23] was > 100 µM and the TGI [24] was > 100 µM. The TGI [25] was 93.4 µM, the TGI [26] was > 100 µM and the TGI [27] was > 100 µM. For the same compound, the TGI [28] was > 100 µM, the TGI [29] was > 100 µM and the TGI [30] was > 100 µM. The TGI [31] was > 100 µM, the TGI [32] was > 100 µM and the TGI [33] was > 100 µM. For the same compound, the TGI [34] was > 100 µM, the TGI [35] was > 100 µM and the TGI [36] was > 100 µM. For the same compound, the TGI [37] was > 100 µM, the TGI [38] was > 100 µM and the TGI [39] was > 100 µM. The TGI [40] was > 100 µM, the TGI [41] was > 100 µM and the TGI [42] was > 100 µM. The TGI [43] was > 100 µM, the TGI [44] was > 100 µM and the TGI [45] was > 100 µM. For the same compound, the TGI [46] was > 100 µM, the TGI [47] was > 100 µM and the TGI [48] was > 100 µM. For the same compound, the TGI [49] was > 100 µM, the TGI [50] was > 100 µM and the TGI [51] was > 100 µM. For the same compound, the TGI [52] was > 100 µM, the TGI [53] was > 100 µM and the TGI [54] was > 100 µM. For the same compound, the TGI [55] was > 100 µM, the TGI [56] was > 100 µM and the TGI [57] was > 100 µM. It also gave a TGI [58] of 46.3 µM.

With CN(C)CCCNC(=O)CCNC(=O)c1cc(NC(=O)c2cc(NC(=O)c3cc(NC(=O)c4nc(NC(=O)CCCNC(=O)c5cc(NC(=O)c6cc(NC(=O)c7cc(NC(=O)c8nccn8C)cn7C)cn6C)cn5C)cn4C)cn3C)cn2C)cn1C the TGI [1] was > 100 µM, the TGI [2] was > 100 µM and the TGI [3] was > 100 µM. The TGI [4] was > 100 µM, the TGI [5] was > 100 µM and the TGI [6] was > 100 µM. For the same compound, the TGI [7] was > 100 µM, the TGI [8] was > 100 µM and the TGI [9] was > 100 µM. For the same compound, the TGI [10] was > 100 µM, the TGI [11] was > 100 µM and the TGI [12] was > 100 µM. For the same compound, the TGI [13] was > 100 µM, the TGI [14] was > 100 µM and the TGI [15] was > 100 µM. The TGI [16] was > 100 µM, the TGI [17] was > 100 µM and the TGI [18] was > 100 µM. The TGI [19] was > 100 µM, the TGI [20] was > 100 µM and the TGI [21] was > 100 µM. The TGI [22] was > 100 µM, the TGI [23] was > 100 µM and the TGI [24] was > 100 µM. The TGI [25] was > 100 µM, the TGI [26] was > 100 µM and the TGI [27] was > 100 µM. For the same compound, the TGI [28] was > 100 µM, the TGI [29] was > 100 µM and the TGI [30] was > 100 µM. The TGI [31] was > 100 µM, the TGI [32] was > 100 µM and the TGI [33] was > 100 µM. The TGI [34] was > 100 µM, the TGI [35] was > 100 µM and the TGI [36] was > 100 µM. For the same compound, the TGI [37] was > 100 µM, the TGI [38] was > 100 µM and the TGI [39] was > 100 µM. The TGI [40] was > 100 µM, the TGI [41] was > 100 µM and the TGI [42] was > 100 µM. For the same compound, the TGI [43] was > 100 µM, the TGI [44] was > 100 µM and the TGI [45] was > 100 µM. For the same compound, the TGI [46] was > 100 µM, the TGI [47] was > 100 µM and the TGI [48] was > 100 µM. The TGI [49] was > 100 µM, the TGI [50] was > 100 µM and the TGI [51] was > 100 µM. The TGI [52] was > 100 µM, the TGI [53] was > 100 µM and the TGI [54] was > 100 µM. For the same compound, the TGI [55] was > 100 µM, the TGI [56] was > 100 µM and the TGI [58] was > 100 µM.

In the case of Cc1nc2cccc(F)c2c(=O)n1C1CCCCNC1=O (stereo unspecified), the TGI [1] is reported as > 10 µM, the TGI [3] is reported as > 10 µM and the TGI [4] is reported as > 10 µM. For the same compound, the TGI [5] was > 10 µM, the TGI [6] was > 10 µM and the TGI [7] was > 10 µM. The TGI [8] was > 10 µM, the TGI [9] was > 10 µM and the TGI [10] was > 10 µM. The TGI [11] was > 10 µM, the TGI [12] was > 10 µM and the TGI [13] was > 10 µM. The TGI [14] was > 10 µM, the TGI [15] was > 10 µM and the TGI [16] was > 10 µM. The TGI [17] was > 10 µM, the TGI [18] was > 10 µM and the TGI [19] was > 10 µM. For the same compound, the TGI [20] was > 10 µM, the TGI [21] was > 10 µM and the TGI [22] was > 10 µM. The TGI [24] was > 10 µM, the TGI [25] was > 10 µM and the TGI [26] was > 10 µM. The TGI [27] was > 10 µM, the TGI [28] was > 10 µM and the TGI [29] was > 10 µM. For the same compound, the TGI [30] was > 10 µM, the TGI [31] was > 10 µM and the TGI [32] was > 10 µM. For the same compound, the TGI [33] was > 10 µM, the TGI [34] was > 10 µM and the TGI [35] was > 10 µM. The TGI [36] was > 10 µM, the TGI [37] was > 10 µM and the TGI [38] was > 10 µM. The TGI [39] was > 10 µM, the TGI [40] was > 10 µM and the TGI [41] was > 10 µM. For the same compound, the TGI [42] was > 10 µM, the TGI [43] was > 10 µM and the TGI [44] was > 10 µM. The TGI [45] was > 10 µM, the TGI [46] was > 10 µM and the TGI [47] was > 10 µM. The TGI [48] was > 10 µM, the TGI [49] was > 10 µM and the TGI [50] was > 10 µM. The TGI [51] was > 10 µM, the TGI [52] was > 10 µM and the TGI [53] was > 10 µM. For the same compound, the TGI [54] was > 10 µM, the TGI [55] was > 10 µM and the TGI [56] was > 10 µM. For the same compound, the TGI [57] was > 10 µM and the TGI [58] was > 10 µM.
